# Experimental data from patent publication US5942527A, “Hydrazones, hydrazines, semicarbazones and thiosemicarbazones derived from pyridyl ketones as anticonvulsant drugs and excitatory amino acid antagonists” (K & K Biosciences, Inc., priority 1997, dated 1999).
# Where a name gives a salt, the structure may show the parent alone.
# Legend:
# [1] = tested on: maximal electroshock seizures; test: Maximal electroshock seizure (MES) test, rat, p.o.; format: in vivo, rat (Sprague-Dawley); conditions: for Class in the MES Test: Table 7, titled MES Test, Rat; for responders at 30 mg/kg: several time points over a 4 hour period, read-out: Percent Protection at 30 mg/kg, in the MES test
# Source text: The hydrazones, hydrazines and semicarbazones derived from pyridyl ketones and the resulting orally effective anticonvulsant compositions of this invention are useful in the treatment of convulsive disorders. […] A series of hydrazones, hydrazines and semicarbazones derived from pyridyl ketones of this invention has been evaluated for anticonvulsant activity by the intraperitoneal (i.p.) and by the oral (p.o.) route using two standard seizure models in the mouse and in the rat, the maximal electroshock seizure (MES) test and the subcutaneous pentylenetetrazole (Metrazole) seizure threshold (scMet) test. […] In addition, the compounds are evaluated in a new model, the threshold tonic extension (TTE) model. […] Thus active compounds that may be missed in the MES and […] the mouse, i.p., can be detected in the TTE test. The Maximal Electroshock Seizure Test (MES): Maximal electroshock seizures are elicited with a 60 Hz alternating current of 50 mA intensity in mice and about 150 mA intensity in rats (5-7 times that necessary to elicit minimal electroshock seizures), delivered for 0.2 sec via corneal electrodes. A drop of 0.9% saline is instilled in the eye prior to application of the electrodes in order to […]. Abolition of the hind limb tonic extension component of the seizure is defined as protection and results are expressed as number of animals protected/number of animals tested. […] This species will be the subject of the complete anticonvulsant quantification test evaluation as described above, but after oral (gavage) administration of the candidate compound.
# [2] = tested on: maximal electroshock seizures; test: Maximal electroshock seizure (MES) test, mouse, i.p.; format: in vivo, mouse (male Carworth Farms #1); conditions: for ASP Group Classification, MES Test: mouse, 30, 100 and 300 mg/kg
# Source text: The hydrazones, hydrazines and semicarbazones derived from pyridyl ketones and the resulting orally effective anticonvulsant compositions of this invention are useful in the treatment of convulsive disorders. […] A series of hydrazones, hydrazines and semicarbazones derived from pyridyl ketones of this invention has been evaluated for anticonvulsant activity by the intraperitoneal (i.p.) and by the oral (p.o.) route using two standard seizure models in the mouse and in the rat, the maximal electroshock seizure (MES) test and the subcutaneous pentylenetetrazole (Metrazole) seizure threshold (scMet) test. […] In addition, the compounds are evaluated in a new model, the threshold tonic extension (TTE) model. […] Thus active compounds that may be missed in the MES and […] the mouse, i.p., can be detected in the TTE test. Based on the screening results, the compounds are placed in one of three categories. […] Class II compounds show anticonvulsant activity at doses greater than 100 mg/kg or show activity at 100 mg/kg which is not reinforced by similar activity at 300 mg/kg. […] The Class I compounds are those which are most promising as anticonvulsants. […] In mice. i.p.: All compounds are emulsified in 0.5% methylcellulose. The solvent has been tested for anticonvulsant and toxic effects and found to introduce no significant bias into the testing of anticonvulsant activity. The compounds are administered intraperitoneally in a volume of 0.01 ml/gm to male Carworth Farms #1 mice weighing about 20 gm. All compounds are tested at least at three dose levels (30, 100 and 300 mg/kg) at 30 minutes and 4 hours after their administration. The Maximal Electroshock Seizure Test (MES): Maximal electroshock seizures are elicited with a 60 Hz alternating current of 50 mA intensity in mice and about 150 mA intensity in rats (5-7 times that necessary to elicit minimal electroshock seizures), delivered for 0.2 sec via corneal electrodes. A drop of 0.9% saline is instilled in the eye prior to application of the electrodes in order to […]. Abolition of the hind limb tonic extension component of the seizure is defined as protection and results are expressed as number of animals protected/number of animals tested. Anticonvulsant Quantification in Mice, i.p.: The ED50 values are determined in the MES, scMet and rotorod ataxia test.
# TTE seizure = test: Threshold tonic extension (TTE) test, mouse, i.p.; format: in vivo; conditions: mouse, 100 mg/kg
# Source text: The hydrazones, hydrazines and semicarbazones derived from pyridyl ketones and the resulting orally effective anticonvulsant compositions of this invention are useful in the treatment of convulsive disorders. […] A series of hydrazones, hydrazines and semicarbazones derived from pyridyl ketones of this invention has been evaluated for anticonvulsant activity by the intraperitoneal (i.p.) and by the oral (p.o.) route using two standard seizure models in the mouse and in the rat, the maximal electroshock seizure (MES) test and the subcutaneous pentylenetetrazole (Metrazole) seizure threshold (scMet) test. […] In addition, the compounds are evaluated in a new model, the threshold tonic extension (TTE) model. […] Thus active compounds that may be missed in the MES and scMet tests in the mouse, i.p., can be detected in the TTE test.
# The Threshold Tonic Extension (TTE) Test: The TTE test (Piredda et al., 1985) is a clinically nonselective, electroconvulsive seizure model that identifies compounds that raise seizure threshold as well as those that prevent seizure spread. […] The test is similar to the MES screen but uses a lower level of electrical current. The lower current makes the TTE test more sensitive but less discriminate than the MES screen. This ability makes the model attractive because it allows us to identify compounds that may be missed by our standard identification screen.
# Twenty mice are pretreated intraperitoneally with 100 mg/kg of the test substance. At several time intervals (1/4, 1/2, 1, 2, and 4 hours) post treatment with the test drug, four mice at each time point are challenged with 12.5 mA of electrical current for 0.2 seconds via corneal electrodes. This produces a TTE seizure in the animals (Woodbury and Davenport, 1952).
# For each time interval results are expressed as a ratio of the number of animals protected over the number tested. […] The positives may represent compounds acting by novel mechanisms.
# in vivo = test: in vivo; set-up: species or system mouse (male Carworth Farms #1); conditions: mouse, ip
# Experimental: Neurotoxicity is determined by the rotorod ataxia test in mice and by the positional sense test and gait and stance test in the rat.
# Neurotoxicity is evaluated in mice by the rotorod ataxia test. The animal is placed on a wooden rod of 1 and 1/8" diameter rotating at 6 rpm. Normal mice can remain on a rod rotating at this speed indefinitely.
# Anticonvulsant Quantification in Mice, i.p.: The ED50 values are determined in the MES, scMet and rotorod ataxia test.
structure (smiles),measurement,setting,value
"CC(Nc1cccc(Cl)c1)c1cccnc1 (centres unmarked) [AAP 3-Pyridyl CH3 3-Cl, reference compound]",Class in the MES Test,[1],II (show anticonvulsant activity at doses greater than 100 mg/kg or show activity at 100 mg/kg which is not reinforced by similar activity at 300 mg/kg)
"CC(Nc1ccc(Cl)cc1)c1cccnc1 (centres unmarked) [AAP 3-Pyridyl CH3 4-Cl, reference compound]","protection at 50 mg/kg, MES Test","[1]; rat, 50 mg/kg, Table 7",0-75%
"CC(Nc1ccc(Cl)c(Cl)c1)c1ccncc1 (centres unmarked) [AAP 4-Pyridyl CH3 3,4-diCl, reference compound]",ED50,"[1]; po, rat, Table 7, read-out: Anticonvulsant Efficacy (ED50, mg/kg) in the MES Test",29.7 mg/kg
"Clc1ccc(NC(c2ccccc2)c2ccncc2)cc1 (centres unmarked) [AAP 4-Pyridyl Ph 4-Cl, reference compound]",Class in the MES Test,[1],III (Those failing to demonstrate anticonvulsant activity at doses up to 300 mg/kg are considered inactive)
"CC(=NNc1ccc(Cl)cc1)c1ccncc1 [Compound 2, Methyl 4-pyridyl ketone 4-chlorophenyl hydrazone]","ASP Group Classification, MES Test",[2],"I (They demonstrate anticonvulsant activity in either the MES test or the scMet test, or both at doses of 100 mg/kg or 30 mg/kg without signs of neurological deficit and thus have an estimated protective index of greater than 1)"
same,responders at 30 mg/kg,"[1]; po, rat, 30 mg/kg",50 to 75%
"CC(=NNc1cccc(Cl)c1)c1cccnc1 [Compound 6, Methyl 3-pyridyl ketone 3-chlorophenylhydrazone]","ASP Group Classification, MES Test",[2],"I (They demonstrate anticonvulsant activity in either the MES test or the scMet test, or both at doses of 100 mg/kg or 30 mg/kg without signs of neurological deficit and thus have an estimated protective index of greater than 1)"
same,Class in the MES Test,[1],"I (They demonstrate anticonvulsant activity in either the MES test or the scMet test, or both at doses of 100 mg/kg or 30 mg/kg without signs of neurological deficit and thus have an estimated protective index of greater than 1)"
"CCC(=NNc1ccc(Cl)c(Cl)c1)c1ccncc1 [Compound 7, Ethyl 4-pyridyl ketone 3,4-dichlorophenylhydrazone]","ASP Group Classification, MES Test",[2],III (Those failing to demonstrate anticonvulsant activity at doses up to 300 mg/kg are considered inactive)
same,"ASP Group Classification, TTE Test",TTE seizure,"I (They demonstrate anticonvulsant activity in either the MES test or the scMet test, or both at doses of 100 mg/kg or 30 mg/kg without signs of neurological deficit and thus have an estimated protective index of greater than 1)"
same,TTE Test (Percent Protection),TTE seizure,25%
"CCC(=NNc1ccc(Cl)cc1)c1ccncc1 [Compound 8, Ethyl 4-pyridyl ketone 4-chlorophenylhydrazone]","ASP Group Classification, MES Test",[2],"I (They demonstrate anticonvulsant activity in either the MES test or the scMet test, or both at doses of 100 mg/kg or 30 mg/kg without signs of neurological deficit and thus have an estimated protective index of greater than 1)"
"Clc1ccc(NN=C(c2ccccc2)c2ccncc2)cc1Cl [Compound 9, Phenyl 4-pyridyl ketone 3,4-dichlorophenylhydrazone]","ASP Group Classification, MES Test",[2],III (Those failing to demonstrate anticonvulsant activity at doses up to 300 mg/kg are considered inactive)
same,"ASP Group Classification, TTE Test",TTE seizure,"I (They demonstrate anticonvulsant activity in either the MES test or the scMet test, or both at doses of 100 mg/kg or 30 mg/kg without signs of neurological deficit and thus have an estimated protective index of greater than 1)"
same,TTE Test (Percent Protection),TTE seizure,25%
"Clc1ccc(NN=C(c2ccccc2)c2ccncc2)cc1 [Compound 10, Phenyl 4-pyridyl ketone 4-chlorophenylhydrazone]","ASP Group Classification, MES Test",[2],"I (They demonstrate anticonvulsant activity in either the MES test or the scMet test, or both at doses of 100 mg/kg or 30 mg/kg without signs of neurological deficit and thus have an estimated protective index of greater than 1)"
same,Class in the MES Test,[1],"I (They demonstrate anticonvulsant activity in either the MES test or the scMet test, or both at doses of 100 mg/kg or 30 mg/kg without signs of neurological deficit and thus have an estimated protective index of greater than 1)"
"Clc1cccc(NN=C(c2ccccc2)c2ccncc2)c1 [Compound 11, Phenyl 4-pyridyl ketone 3-chlorophenylhydrazone]","ASP Group Classification, MES Test",[2],III (Those failing to demonstrate anticonvulsant activity at doses up to 300 mg/kg are considered inactive)
same,"ASP Group Classification, TTE Test",TTE seizure,"I (They demonstrate anticonvulsant activity in either the MES test or the scMet test, or both at doses of 100 mg/kg or 30 mg/kg without signs of neurological deficit and thus have an estimated protective index of greater than 1)"
"CC(NNc1ccc(Cl)c(Cl)c1)c1cccnc1 (centres unmarked) [Compound 12, 1-(3,4-dichlorophenyl)-2-[1-(3-pyridyl)]ethylhydrazine dihydrochloride]","ASP Group Classification, MES Test",[2],"I (They demonstrate anticonvulsant activity in either the MES test or the scMet test, or both at doses of 100 mg/kg or 30 mg/kg without signs of neurological deficit and thus have an estimated protective index of greater than 1)"
same,responders at 30 mg/kg,"[1]; po, rat, 30 mg/kg",25 to 75%
"CC(=NNC(N)=O)c1ccncc1 [Compound 13, Methyl 4-pyridyl ketone semicarbazone]","ASP Group Classification, MES Test",[2],"I (They demonstrate anticonvulsant activity in either the MES test or the scMet test, or both at doses of 100 mg/kg or 30 mg/kg without signs of neurological deficit and thus have an estimated protective index of greater than 1)"
"CC(=NNC(N)=O)c1cccnc1 [Compound 14, Methyl 3-pyridyl ketone semicarbazone]","ASP Group Classification, MES Test",[2],II (show anticonvulsant activity at doses greater than 100 mg/kg or show activity at 100 mg/kg which is not reinforced by similar activity at 300 mg/kg)
"NC(=O)NN=C(c1ccccc1)c1cccnc1 [Compound 16, Phenyl 3-pyridyl ketone semicarbazone]",ED50,"[2]; Mus musculus, ip, mice, Table 5",21.8 mg/kg
same,"P.I., TD50/ED50, MES","[2]; mice, Table 5",3.87
same,"ASP Group Classification, MES Test",[2],"I (They demonstrate anticonvulsant activity in either the MES test or the scMet test, or both at doses of 100 mg/kg or 30 mg/kg without signs of neurological deficit and thus have an estimated protective index of greater than 1)"
same,responders at 30 mg/kg,"[1]; po, rat, 30 mg/kg",75 to 100%
same,"protection at 30 mg/kg, MES Test","[1]; rat, 30 mg/kg, Table 7",75-100%
same,TD50,in vivo,84.6 mg/kg
